In patent US9193719B2, “1,2,4-triazol-5-ones and analogs exhibiting anti-cancer and anti-proliferative activities” (Deciphera Pharmaceuticals, LLC, priority 2013, dated 2015):

Experiments:
[1] = molecular target: T1, unphosphorylated c-FMS kinase (uFMS, Seq. ID no. 1) (Homo sapiens, UniProt P07333); assay: uFMS kinase enzymatic assay (pyruvate kinase/lactate dehydrogenase coupled); assay type: biochemical; conditions: ATP 500 μM, rate 3 to 4 h
T1 construct: purchased Millipore
T1 sequence (P07333 538-972): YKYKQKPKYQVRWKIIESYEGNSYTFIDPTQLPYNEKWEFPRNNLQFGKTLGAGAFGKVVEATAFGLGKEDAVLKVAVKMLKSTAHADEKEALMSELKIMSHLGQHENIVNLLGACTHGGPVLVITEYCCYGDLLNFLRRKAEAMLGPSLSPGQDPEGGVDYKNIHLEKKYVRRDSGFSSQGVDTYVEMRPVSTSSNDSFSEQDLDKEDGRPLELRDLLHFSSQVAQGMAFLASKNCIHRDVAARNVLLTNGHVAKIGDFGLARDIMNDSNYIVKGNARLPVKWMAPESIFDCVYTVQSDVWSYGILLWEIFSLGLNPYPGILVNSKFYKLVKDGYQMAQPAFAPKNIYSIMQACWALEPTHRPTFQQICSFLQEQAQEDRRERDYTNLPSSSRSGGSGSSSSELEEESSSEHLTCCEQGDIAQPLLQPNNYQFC
In short: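 Coupled PK/LDH assay following NADH oxidation at A340 with 10 nM unphosphorylated FMS, 1 mg/mL polyE4Y, 500 μM ATP in 90 mM Tris pH 7.5, 0.2% octyl-glucoside, 1% DMSO. Read continuously 4 h at 30 °C; rate from 3–4 h window versus no-compound control; IC50 from percent-inhibition series.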

[2] = molecular target: T2, unphosphorylated PDGFRβ kinase (uPDGFRβ, Seq. ID No. 3) (Homo sapiens, UniProt P09619); assay: uPDGFRβ kinase enzymatic assay (pyruvate kinase/lactate dehydrogenase coupled); assay type: biochemical; conditions: ATP 500 μM, rate 1.5 to 2.5 h
T2 construct: purchased DeCode
T2 sequence (P09619 557-1106): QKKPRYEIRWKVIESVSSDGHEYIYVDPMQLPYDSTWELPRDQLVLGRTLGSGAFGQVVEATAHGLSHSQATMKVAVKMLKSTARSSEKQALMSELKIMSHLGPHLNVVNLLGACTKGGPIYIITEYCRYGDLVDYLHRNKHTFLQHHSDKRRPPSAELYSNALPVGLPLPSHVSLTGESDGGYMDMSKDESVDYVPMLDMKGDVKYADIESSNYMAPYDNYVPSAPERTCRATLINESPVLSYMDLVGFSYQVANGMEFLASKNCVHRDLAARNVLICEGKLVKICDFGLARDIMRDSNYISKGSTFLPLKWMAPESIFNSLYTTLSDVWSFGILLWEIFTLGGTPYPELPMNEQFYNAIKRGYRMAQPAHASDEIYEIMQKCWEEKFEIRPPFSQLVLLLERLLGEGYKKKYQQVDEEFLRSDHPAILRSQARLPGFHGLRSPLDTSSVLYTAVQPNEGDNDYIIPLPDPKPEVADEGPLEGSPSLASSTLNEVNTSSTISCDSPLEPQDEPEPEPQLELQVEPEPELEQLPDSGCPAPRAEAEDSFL
In short: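 Unphosphorylated PDGFRβ (15.7 nM) with 500 μM ATP and poly E4Y (2.5 mg/mL) in Tris pH 7.5, 0.2% octyl-glucoside, 1% DMSO; ADP coupled via PK/LDH to NADH oxidation at A340, read continuously 4 h at 30 °C. Rates from 1.5–2.5 h window versus no-compound control gave IC50.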

[3] = system: M-NFS-60 cells; assay: M-NFS-60 cell proliferation assay (resazurin); assay type: cell-based; conditions: 67 h incubation
In short: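 Cells kept in medium containing 20 ng/mL mouse recombinant M-CSF. Fluorescence was read at ex 540/em 600 nm, and IC50 was fitted from percent inhibition across a range of inhibitor concentrations.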

[4] = system: osteoclast precursors; assay: Osteoclast tartrate-resistant acid phosphatase assay; assay type: cell-based; conditions: RANKL and M-CSF, 7-14 days, tartrate-resistant acid phosphatase activity

Row | Structure (SMILES) | IC50 [1] [nM] | IC50 [2] [nM] | IC50 [3] [nM] | IC50 [4] [nM]
1 | Cc1cc(-n2nc(C(C)(C)C)[nH]c2=O)ncc1Oc1ccnc(-c2cnn(C)c2)c1 [Example 31, 3-(tert-butyl)-1-(4-methyl-5-((2-(1-methyl-1H-pyrazol-4-yl)pyridin-4-yl)oxy)pyridin-2-yl)-1H-1,2,4-triazol-5(4H)-one] | ≤ 10 | 100 to 1000 | 10 to 100 | 10 to 100
2 | Cc1nc(-n2nc(C3(C)CC3)[nH]c2=O)ccc1Oc1ccnc(-c2cnn(C)c2)c1 [Example 27, 1-(6-methyl-5-((2-(1-methyl-1H-pyrazol-4-yl)pyridin-4-yl)oxy)pyridin-2-yl)-3-(1-methylcyclopropyl)-1H-1,2,4-triazol-5(4H)-one] | ≤ 10 | > 1000 | 10 to 100 | 10 to 100
3 | Cc1nc(-n2nc(C3CCC3)[nH]c2=O)ccc1Oc1ccnc(-c2cnn(C)c2)c1 [Example 37, 3-cyclobutyl-1-(6-methyl-5-((2-(1-methyl-1H-pyrazol-4-yl)pyridin-4-yl)oxy)pyridin-2-yl)-1H-1,2,4-triazol-5(4H)-one] | ≤ 10 | 100 to 1000 | 10 to 100 | ≤ 10
4 | Cc1nc(-n2nc(C3(C(F)(F)F)CCC3)[nH]c2=O)ccc1Oc1ccnc(-c2cnn(C)c2)c1 [Example 43, 1-(6-methyl-5-((2-(1-methyl-1H-pyrazol-4-yl)pyridin-4-yl)oxy)pyridin-2-yl)-3-(1-(trifluoromethyl)cyclobutyl)-1H-1,2,4-triazol-5(4H)-one] | ≤ 10 | 100 to 1000 | 100 to 1000 | 10 to 100
5 | Cc1ccc(-c2cc(Oc3ccc(-n4nc(C(C)(C)C)[nH]c4=O)nc3C)ccn2)cn1 [Example 10, 3-(tert-butyl)-1-(6-methyl-5-((6′-methyl-[2,3′-bipyridin]-4-yl)oxy)pyridin-2-yl)-1H-1,2,4-triazol-5(4H)-one] | 10 to 100 | > 1000 | 10 to 100 | 10 to 100
6 | Cc1nc(-n2nc(C3CCOCC3)[nH]c2=O)ccc1Oc1ccnc(-c2cnn(C)c2)c1 [Example 20, 1-(6-methyl-5-((2-(1-methyl-1H-pyrazol-4-yl)pyridin-4-yl)oxy)pyridin-2-yl)-3-(tetrahydro-2H-pyran-4-yl)-1H-1,2,4-triazol-5(4H)-one] | ≤ 10 | > 1000 | 100 to 1000 | 100 to 1000
7 | Cc1nc(-n2nc(C(C)(C)C)[nH]c2=O)ccc1Oc1cc(-c2cnn(C)c2)ncn1 [Example 47, 3-(tert-butyl)-1-(6-methyl-5-((6-(1-methyl-1H-pyrazol-4-yl)pyrimidin-4-yl)oxy)pyridin-2-yl)-1H-1,2,4-triazol-5(4H)-one] | 10 to 100 | > 1000 | 100 to 1000 | 10 to 100
8 | COCC(C)(C)c1nn(-c2ccc(Oc3ccnc(-c4cnn(C)c4)c3)c(C)n2)c(=O)[nH]1 [Example 46, 3-(1-methoxy-2-methylpropan-2-yl)-1-(6-methyl-5-((2-(1-methyl-1H-pyrazol-4-yl)pyridin-4-yl)oxy)pyridin-2-yl)-1H-1,2,4-triazol-5(4H)-one] | 10 to 100 | > 1000 | 100 to 1000 | 10 to 100
9 | Cc1nc(-n2nc(C(C)(C)C)[nH]c2=O)ccc1Oc1ccnc(-c2ccc(C3CCN(C)CC3)cc2)c1 [Example 14, 3-(tert-butyl)-1-(6-methyl-5-((2-(4-(1-methylpiperidin-4-yl)phenyl)pyridin-4-yl)oxy)pyridin-2-yl)-1H-1,2,4-triazol-5(4H)-one] | ≤ 10 | > 1000 | 10 to 100 | ≤ 10
10 | Cc1cc(-c2cc(Oc3ccc(-n4nc(C(C)(C)C)[nH]c4=O)nc3C)ccn2)ccn1 [Example 9, 3-(tert-butyl)-1-(6-methyl-5-((2′-methyl-[2,4′-bipyridin]-4-yl)oxy)pyridin-2-yl)-1H-1,2,4-triazol-5(4H)-one] | 10 to 100 | > 1000 | 10 to 100 | 10 to 100
11 | Cc1nc(-n2nc(C(C)(C)C)n(C)c2=O)ccc1Oc1ccnc(-c2cnn(C)c2)c1 [Example 13, 3-(tert-butyl)-4-methyl-1-(6-methyl-5-((2-(1-methyl-1H-pyrazol-4-yl)pyridin-4-yl)oxy)pyridin-2-yl)-1H-1,2,4-triazol-5(4H)-one] | 10 to 100 | > 1000 | 100 to 1000 | 100 to 1000
12 | Cc1nc(-n2nc(C(C)(C)C)oc2=O)ccc1Oc1ccnc(-c2cnn(C)c2)c1 [Example 49, 5-(tert-butyl)-3-(6-methyl-5-((2-(1-methyl-1H-pyrazol-4-yl)pyridin-4-yl)oxy)pyridin-2-yl)-1,3,4-oxadiazol-2(3H)-one] | 10 to 100 | > 1000 | 10 to 100 | 10 to 100
13 | CCn1cc(-c2cc(Oc3ccc(-n4nc(C(C)(C)C)[nH]c4=O)nc3C)ccn2)cn1 [Example 38, 3-(tert-butyl)-1-(5-((2-(1-ethyl-1H-pyrazol-4-yl)pyridin-4-yl)oxy)-6-methylpyridin-2-yl)-1H-1,2,4-triazol-5(4H)-one] | ≤ 10 | > 1000 | 10 to 100 | 10 to 100
14 | Cc1nc(-n2nc(CC(C)C)[nH]c2=O)ccc1Oc1ccnc(-c2cnn(C)c2)c1 [Example 22, 3-isobutyl-1-(6-methyl-5-((2-(1-methyl-1H-pyrazol-4-yl)pyridin-4-yl)oxy)pyridin-2-yl)-1H-1,2,4-triazol-5(4H)-one] | ≤ 10 | > 1000 | ≤ 10 | 10 to 100
15 | Cc1nc(-n2nc(C(C)(C)C)[nH]c2=O)ccc1Oc1ccnc(-c2cnco2)c1 [Example 39, 3-(tert-butyl)-1-(6-methyl-5-((2-(oxazol-5-yl)pyridin-4-yl)oxy)pyridin-2-yl)-1H-1,2,4-triazol-5(4H)-one] | 10 to 100 | > 1000 | 10 to 100 | 10 to 100
16 | Cc1nc(-n2nc(CC(C)(C)C)[nH]c2=O)ccc1Oc1ccnc(-c2cnn(C)c2)c1 [Example 36, 1-(6-methyl-5-((2-(1-methyl-1H-pyrazol-4-yl)pyridin-4-yl)oxy)pyridin-2-yl)-3-neopentyl-1H-1,2,4-triazol-5(4H)-one] | ≤ 10 | 100 to 1000 | 10 to 100 | 10 to 100
17 | Cc1nc(-n2cc(C(C)(C)C)[nH]c2=O)ccc1Oc1ccnc(-c2cnn(C)c2)c1 [Example 48, 4-(tert-butyl)-1-(6-methyl-5-((2-(1-methyl-1H-pyrazol-4-yl)pyridin-4-yl)oxy)pyridin-2-yl)-1H-imidazol-2(3H)-one] | 10 to 100 | > 1000 | 10 to 100 | 10 to 100
18 | COC(C)(C)c1nn(-c2ccc(Oc3ccnc(-c4cnn(C)c4)c3)c(C)n2)c(=O)[nH]1 [Example 16, 3-(2-methoxypropan-2-yl)-1-(6-methyl-5-((2-(1-methyl-1H-pyrazol-4-yl)pyridin-4-yl)oxy)pyridin-2-yl)-1H-1,2,4-triazol-5(4H)-one] | 10 to 100 | > 1000 | 100 to 1000 | 10 to 100
